The values below come from ChEMBL document CHEMBL1125295, “Synthesis and some pharmacological properties of potent and selective antagonists of the vasopressor (V1-receptor) response to arginine-vasopressin” (J Med Chem, 1992).

Assay [1] concerns the target Vasopressin V2 receptor (Rattus norvegicus) (UniProt Q00788). As to the kind of experiment: Dose that reduces urine flow in water-loaded rats. The assay is classed as functional.
Assay [2] deals with Vasopressin V1 receptor (Rattus norvegicus) (UniProt P48974+P30560). Put plainly: Dose that reduces blood pressure response in rats. Type of assay: functional.
A further assay concerns the target Vasopressin V1 receptor (Rattus norvegicus, UniProt P48974+P30560). Put plainly: In vivo vasopressin V1-antagonistic activity was determined by measuring the blood pressure response in rats. Type of assay: functional, organism-based.
Another assay addresses Vasopressin V2 receptor (Rattus norvegicus, UniProt Q00788). As to the kind of experiment: In vivo antidiuretic V2-antagonistic activity was measured as changes in urine flow in water-loaded rats and is expressed as the negative logarithm of the ''effective dose divided by the estimated volume of distribution (67 mL/kg). Type of assay: functional, organism-based. To be noted: read-out: pA2 (converted).

The nature of assay [3]: Ratio of antidiuretic V2 effective dose to that of vasopressin V1 effective dose. The assay is classed as functional, Urine.

*1 amine or outer side, *2 acyl side, *3 side chain or, on linkers, in order; H or OH if unused. Where a SMILES comes first, the peptide text is derived from it. Bridges are numbered along the chain shown (N, C = ends). The star is where a group is joined. Ethylenediamine = C(CN[*:2])N[*:1]; X1 = O=C(CC1(S[*:2])CCCCC1)[*:1]; X2 = CC(C)(CC(=O)[*:1])S[*:2]; NHBu = CCCCN*

Vasopressin V1 receptor (Rattus norvegicus), sequence (P30560 whole entry, looked up): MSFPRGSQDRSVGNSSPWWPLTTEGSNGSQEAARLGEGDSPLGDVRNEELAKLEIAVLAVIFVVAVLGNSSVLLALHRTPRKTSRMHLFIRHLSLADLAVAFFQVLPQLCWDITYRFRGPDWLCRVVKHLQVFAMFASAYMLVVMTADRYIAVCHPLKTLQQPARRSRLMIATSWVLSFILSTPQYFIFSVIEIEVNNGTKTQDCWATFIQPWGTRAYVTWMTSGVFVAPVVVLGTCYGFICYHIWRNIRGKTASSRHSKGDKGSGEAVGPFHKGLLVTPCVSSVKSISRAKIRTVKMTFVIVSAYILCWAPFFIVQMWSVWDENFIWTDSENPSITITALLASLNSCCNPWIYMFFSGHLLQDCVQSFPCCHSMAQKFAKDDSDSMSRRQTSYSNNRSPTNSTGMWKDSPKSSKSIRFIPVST
Vasopressin V1 receptor (Rattus norvegicus), sequence (P48974 whole entry, looked up): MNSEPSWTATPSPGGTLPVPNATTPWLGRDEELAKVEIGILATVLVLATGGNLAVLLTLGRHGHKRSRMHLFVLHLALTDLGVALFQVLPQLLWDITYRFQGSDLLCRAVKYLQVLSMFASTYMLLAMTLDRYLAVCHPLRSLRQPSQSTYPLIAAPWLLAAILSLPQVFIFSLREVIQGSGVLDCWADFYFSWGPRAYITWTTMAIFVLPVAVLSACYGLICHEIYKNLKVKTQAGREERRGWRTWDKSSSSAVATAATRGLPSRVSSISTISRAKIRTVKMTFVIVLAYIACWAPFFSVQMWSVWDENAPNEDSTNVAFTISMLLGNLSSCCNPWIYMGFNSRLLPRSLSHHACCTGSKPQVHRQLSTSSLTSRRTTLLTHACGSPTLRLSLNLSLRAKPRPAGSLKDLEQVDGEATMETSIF
Vasopressin V2 receptor, sequence (Q00788 whole entry): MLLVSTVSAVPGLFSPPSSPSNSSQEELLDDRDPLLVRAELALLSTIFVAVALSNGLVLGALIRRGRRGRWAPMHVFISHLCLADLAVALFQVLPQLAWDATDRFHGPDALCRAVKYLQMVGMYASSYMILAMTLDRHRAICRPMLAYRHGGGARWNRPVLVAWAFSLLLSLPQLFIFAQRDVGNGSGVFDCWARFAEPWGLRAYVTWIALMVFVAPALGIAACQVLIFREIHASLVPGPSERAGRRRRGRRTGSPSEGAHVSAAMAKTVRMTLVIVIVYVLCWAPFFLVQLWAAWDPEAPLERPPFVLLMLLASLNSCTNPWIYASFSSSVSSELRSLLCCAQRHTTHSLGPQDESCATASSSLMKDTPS
Vasopressin V2 receptor (Rattus norvegicus), sequence (Q00788 whole entry): as above

Regarding `CC(C)[C@H](NC(=O)[C@H](CCCN=C(N)N)NC(=O)[C@@H]1CCCN1C(=O)[C@H]1CSSC2(CCCCC2)CC(=O)N(C)[C@@H](Cc2ccc(O)cc2)C(=O)N[C@H](Cc2ccccc2)C(=O)N[C@@H](CCC(N)=O)C(=O)N[C@H](CC(N)=O)C(=O)N1)C(N)=O`, the Effective dose in assay [1] was 115 nM/kg; in assay [2], 0.2 nM/kg.

Consider `CN1C(=O)CC2(CCCCC2)SSC[C@H](C(=O)N2CCC[C@H]2C(=O)N[C@@H](CCCN=C(N)N)C(=O)NCCN)NC(=O)[C@@H](CC(N)=O)NC(=O)[C@H](CCC(N)=O)NC(=O)[C@@H](Cc2ccccc2)NC(=O)[C@@H]1Cc1ccc(O)cc1`, for which the Effective dose in assay [1] is 33 nM/kg; in assay [2], 0.12 nM/kg. `CNC(=O)[C@H](CCCN=C(N)N)NC(=O)[C@@H]1CCCN1C(=O)[C@H]1CSSC2(CCCCC2)CC(=O)N(C)[C@@H](Cc2ccc(O)cc2)C(=O)N[C@H](Cc2ccccc2)C(=O)N[C@@H](CCC(N)=O)C(=O)N[C@H](CC(N)=O)C(=O)N1`: the results for the Effective dose in assay [1] and in assay [2] were 84 nM/kg and 0.12 nM/kg, respectively. `COc1ccc(C[C@@H]2NC(=O)CC3(CCCCC3)SSC[C@@H](C(=O)N3CCC[C@H]3C(=O)N[C@@H](CCCN=C(N)N)C(=O)NCCN)NC(=O)[C@H](CC(N)=O)NC(=O)[C@H](CCC(N)=O)NC(=O)[C@H](Cc3ccccc3)NC2=O)cc1` (Y(Me)FQNCPR-Ethylenediamine; linker N-5 via X1) [listing 1 of 2 here] showed a pA2 at Vasopressin V1 receptor of 8.75. The Kb on Vasopressin V2 receptor was ~501 nM.

With `COc1ccc(C[C@@H]2NC(=O)CC3(CCCCC3)SSC[C@@H](C(=O)N3CCC[C@H]3C(=O)N[C@@H](CCCN=C(N)N)C(=O)NCCN)NC(=O)[C@H](CC(N)=O)NC(=O)[C@H](CCC(N)=O)NC(=O)[C@H](Cc3ccccc3)NC2=O)cc1` (Y(Me)FQNCPR-Ethylenediamine; linker N-5 via X1) [listing 2 of 2 here], the Ratio in assay [3] is reported as ~275. Take `CNC(=O)[C@H](CCCN=C(N)N)NC(=O)[C@@H]1CCCN1C(=O)[C@@H]1CSSC2(CCCCC2)CC(=O)N[C@@H](Cc2ccc(OC)cc2)C(=O)N[C@@H](Cc2ccccc2)C(=O)N[C@@H](CCC(N)=O)C(=O)N[C@@H](CC(N)=O)C(=O)N1` (Y(Me)FQNCPR-NHMe; linker N-5 via X1) [listing 1 of 2 here]: the pA2 at Vasopressin V1 receptor came to 8.73. The Kb on Vasopressin V2 receptor was ~1260 nM. Take `CNC(=O)[C@H](CCCN=C(N)N)NC(=O)[C@@H]1CCCN1C(=O)[C@@H]1CSSC2(CCCCC2)CC(=O)N[C@@H](Cc2ccc(OC)cc2)C(=O)N[C@@H](Cc2ccccc2)C(=O)N[C@@H](CCC(N)=O)C(=O)N[C@@H](CC(N)=O)C(=O)N1` (Y(Me)FQNCPR-NHMe; linker N-5 via X1) [listing 2 of 2 here]: in assay [3], the Ratio was ~700. The molecule `COc1ccc(C[C@@H]2NC(=O)CC3(CCCCC3)SSC[C@@H](C(=O)N3CCC[C@H]3C(=O)N[C@@H](CCCN=C(N)N)C(=O)N[C@@H](C)C(N)=O)NC(=O)[C@H](CC(N)=O)NC(=O)[C@H](CCC(N)=O)NC(=O)[C@H](Cc3ccccc3)NC2=O)cc1` (Y(Me)FQNCPRA-NH2; linker N-5 via X1) [listing 1 of 2 here] showed a pA2 on Vasopressin V1 receptor of 8.75. Further, the Kb on Vasopressin V2 receptor is ~1000 nM. In the case of `COc1ccc(C[C@@H]2NC(=O)CC3(CCCCC3)SSC[C@@H](C(=O)N3CCC[C@H]3C(=O)N[C@@H](CCCN=C(N)N)C(=O)N[C@@H](C)C(N)=O)NC(=O)[C@H](CC(N)=O)NC(=O)[C@H](CCC(N)=O)NC(=O)[C@H](Cc3ccccc3)NC2=O)cc1` (Y(Me)FQNCPRA-NH2; linker N-5 via X1) [listing 2 of 2 here], the Ratio in assay [3] is reported as ~590. `COc1ccc(C[C@@H]2NC(=O)CC(C)(C)SSC[C@@H](C(=O)N3CCC[C@H]3C(=O)N[C@@H](CCCN=C(N)N)C(=O)N[C@@H](C)C(N)=O)NC(=O)[C@H](CC(N)=O)NC(=O)[C@H](CCC(N)=O)NC(=O)[C@H](Cc3ccccc3)NC2=O)cc1` (Y(Me)FQNCPRA-NH2; linker N-5 via X2): the pA2 at Vasopressin V1 receptor is recorded as 8.16.

In turn, `COc1ccc(C[C@@H]2NC(=O)CC3(CCCCC3)SSC[C@@H](C(=O)N3CCC[C@H]3C(=O)N[C@@H](CCCN=C(N)N)C(=O)NCC(=O)NCCN)NC(=O)[C@H](CC(N)=O)NC(=O)[C@H](CCC(N)=O)NC(=O)[C@H](Cc3ccccc3)NC2=O)cc1` (Y(Me)FQNCPRG-Ethylenediamine; linker N-5 via X1) [listing 1 of 2 here] had a pA2 on Vasopressin V1 receptor of 8.39. Further, at Vasopressin V2 receptor, the Kb was ~251 nM.

As to `COc1ccc(C[C@@H]2NC(=O)CC3(CCCCC3)SSC[C@@H](C(=O)N3CCC[C@H]3C(=O)N[C@@H](CCCN=C(N)N)C(=O)NCC(=O)NCCN)NC(=O)[C@H](CC(N)=O)NC(=O)[C@H](CCC(N)=O)NC(=O)[C@H](Cc3ccccc3)NC2=O)cc1` (Y(Me)FQNCPRG-Ethylenediamine; linker N-5 via X1) [listing 2 of 2 here], the Ratio in assay [3] is recorded as ~60. In turn, `COc1ccc(C[C@@H]2NC(=O)CC3(CCCCC3)SSC[C@@H](C(=O)N3CCC[C@H]3C(=O)N[C@@H](CCCN=C(N)N)C(=O)NCC(N)=O)NC(=O)[C@H](CC(N)=O)NC(=O)[C@H](CCC(N)=O)NC(=O)[C@H](Cc3ccccc3)NC2=O)cc1` (Y(Me)FQNCPRG-NH2; linker N-5 via X1) had a pA2 at Vasopressin V1 receptor of 8.62. The molecule `CCCCNC(=O)CNC(=O)[C@H](CCCN=C(N)N)NC(=O)[C@@H]1CCCN1C(=O)[C@@H]1CSSC2(CCCCC2)CC(=O)N[C@@H](Cc2ccc(OC)cc2)C(=O)N[C@@H](Cc2ccccc2)C(=O)N[C@@H](CCC(N)=O)C(=O)N[C@@H](CC(N)=O)C(=O)N1` (Y(Me)FQNCPRG-NHBu; linker N-5 via X1) came in with a pA2 at Vasopressin V1 receptor of 8.44.

Molecule `COc1ccc(C[C@@H]2NC(=O)CC3(CCCCC3)SSC[C@@H](C(=O)N3CCC[C@H]3C(=O)N[C@@H](CCCN=C(N)N)C(=O)N[C@@H](CCCN=C(N)N)C(N)=O)NC(=O)[C@H](CC(N)=O)NC(=O)[C@H](CCC(N)=O)NC(=O)[C@H](Cc3ccccc3)NC2=O)cc1` (Y(Me)FQNCPRR-NH2; linker N-5 via X1) displayed a pA2 on Vasopressin V1 receptor of 8.78. Besides, the Kb at Vasopressin V2 receptor was ~219 nM.

Regarding `COc1ccc(C[C@@H]2NC(=O)CC(C)(C)SSC[C@@H](C(=O)N3CCC[C@H]3C(=O)N[C@@H](CCCN=C(N)N)C(=O)N[C@@H](CCCN=C(N)N)C(N)=O)NC(=O)[C@H](CC(N)=O)NC(=O)[C@H](CCC(N)=O)NC(=O)[C@H](Cc3ccccc3)NC2=O)cc1` (Y(Me)FQNCPRR-NH2; linker N-5 via X2), the pA2 at Vasopressin V1 receptor worked out at 8.52. Take `COc1ccc(C[C@@H]2NC(=O)CC3(CCCCC3)SSC[C@@H](C(=O)N3CCC[C@H]3C(=O)N[C@@H](CCCN=C(N)N)C(=O)N[C@H](C(N)=O)[C@@H](C)O)NC(=O)[C@H](CC(N)=O)NC(=O)[C@H](CCC(N)=O)NC(=O)[C@H](Cc3ccccc3)NC2=O)cc1` (Y(Me)FQNCPRT-NH2; linker N-5 via X1) [listing 1 of 2 here]: the pA2 on Vasopressin V1 receptor is 8.49. In addition, the Kb on Vasopressin V2 receptor was ~631 nM. For the molecule `COc1ccc(C[C@@H]2NC(=O)CC3(CCCCC3)SSC[C@@H](C(=O)N3CCC[C@H]3C(=O)N[C@@H](CCCN=C(N)N)C(=O)N[C@H](C(N)=O)[C@@H](C)O)NC(=O)[C@H](CC(N)=O)NC(=O)[C@H](CCC(N)=O)NC(=O)[C@H](Cc3ccccc3)NC2=O)cc1` (Y(Me)FQNCPRT-NH2; linker N-5 via X1) [listing 2 of 2 here], in assay [3], the Ratio is given as ~205. Take `COc1ccc(C[C@@H]2NC(=O)CC(C)(C)SSC[C@@H](C(=O)N3CCC[C@H]3C(=O)N[C@@H](CCCN=C(N)N)C(=O)N[C@H](C(N)=O)[C@@H](C)O)NC(=O)[C@H](CC(N)=O)NC(=O)[C@H](CCC(N)=O)NC(=O)[C@H](Cc3ccccc3)NC2=O)cc1` (Y(Me)FQNCPRT-NH2; linker N-5 via X2): the pA2 at Vasopressin V1 receptor was determined as 8.04. In turn, `COc1ccc(C[C@@H]2NC(=O)CC3(CCCCC3)SSC[C@@H](C(=O)N3CCC[C@H]3C(=O)N[C@@H](CCCN=C(N)N)C(=O)N[C@H](C(N)=O)C(C)C)NC(=O)[C@H](CC(N)=O)NC(=O)[C@H](CCC(N)=O)NC(=O)[C@H](Cc3ccccc3)NC2=O)cc1` (Y(Me)FQNCPRV-NH2; linker N-5 via X1) [listing 1 of 2 here] came in with a pA2 at Vasopressin V1 receptor of 8.57. Besides, the Kb on Vasopressin V2 receptor was ~1580 nM. Take `COc1ccc(C[C@@H]2NC(=O)CC3(CCCCC3)SSC[C@@H](C(=O)N3CCC[C@H]3C(=O)N[C@@H](CCCN=C(N)N)C(=O)N[C@H](C(N)=O)C(C)C)NC(=O)[C@H](CC(N)=O)NC(=O)[C@H](CCC(N)=O)NC(=O)[C@H](Cc3ccccc3)NC2=O)cc1` (Y(Me)FQNCPRV-NH2; linker N-5 via X1) [listing 2 of 2 here]: in assay [3], the Ratio is given as ~575.

As for `COc1ccc(C[C@@H]2NC(=O)CC(C)(C)SSC[C@@H](C(=O)N3CCC[C@H]3C(=O)N[C@@H](CCCN=C(N)N)C(=O)N[C@H](C(N)=O)C(C)C)NC(=O)[C@H](CC(N)=O)NC(=O)[C@H](CCC(N)=O)NC(=O)[C@H](Cc3ccccc3)NC2=O)cc1` (Y(Me)FQNCPRV-NH2; linker N-5 via X2), the pA2 at Vasopressin V1 receptor came to 8.05.

As for `COc1ccc(C[C@@H]2NC(=O)CC3(CCCCC3)SSC[C@@H](C(=O)N3CCC[C@H]3C(=O)N[C@@H](CCCN=C(N)N)C(=O)N[C@@H](Cc3ccc(O)cc3)C(N)=O)NC(=O)[C@H](CC(N)=O)NC(=O)[C@H](CCC(N)=O)NC(=O)[C@H](Cc3ccccc3)NC2=O)cc1` (Y(Me)FQNCPRY-NH2; linker N-5 via X1) [listing 1 of 2 here], on Vasopressin V1 receptor, the pA2 is on record as 8.47. In addition, the Kb on Vasopressin V2 receptor is ~1000 nM. With `COc1ccc(C[C@@H]2NC(=O)CC3(CCCCC3)SSC[C@@H](C(=O)N3CCC[C@H]3C(=O)N[C@@H](CCCN=C(N)N)C(=O)N[C@@H](Cc3ccc(O)cc3)C(N)=O)NC(=O)[C@H](CC(N)=O)NC(=O)[C@H](CCC(N)=O)NC(=O)[C@H](Cc3ccccc3)NC2=O)cc1` (Y(Me)FQNCPRY-NH2; linker N-5 via X1) [listing 2 of 2 here], the Ratio in assay [3] is ~217. Regarding `COc1ccc(C[C@@H]2NC(=O)CC(C)(C)SSC[C@@H](C(=O)N3CCC[C@H]3C(=O)N[C@@H](CCCN=C(N)N)C(=O)N[C@@H](Cc3ccc(O)cc3)C(N)=O)NC(=O)[C@H](CC(N)=O)NC(=O)[C@H](CCC(N)=O)NC(=O)[C@H](Cc3ccccc3)NC2=O)cc1` (Y(Me)FQNCPRY-NH2; linker N-5 via X2), at Vasopressin V1 receptor, the pA2 is recorded as 8.25. Still for that read-out and setting: the result for `COc1ccc(C[C@@H]2NC(=O)CC(C)(C)SSC[C@@H](C(=O)N3CCC[C@H]3C(=O)N[C@@H](CCCN=C(N)N)C(=O)NCC(N)=O)NC(=O)[C@H](CC(N)=O)NC(=O)[C@H](CCC(N)=O)NC(=O)[C@H](Cc3ccccc3)NC2=O)cc1` [DP[TYR(ME)2]AVP] (Y(Me)FQNCPRG-NH2; linker N-5 via X2) reads 7.96.
